Assay results taken from US20030228324A1, “Peptide compositions and methods of producing and using same” (priority 1999, published 2003).
“Also recorded” adds a separate entry of the source.

Legend:
[1] = biological target: AcPAK(128-144)OH (Pseudomonas aeruginosa, UniProt P02973); format: binding
[2] = biological target: AcPAO(128-144)OH (Pseudomonas aeruginosa, UniProt P04739); format: binding; conditions: for cross-reactivity of the antiserum with PAO: antiserum raised to the named peptide
[3] = system: AcP1(126-148)OH; test: Competition ELISA, antiserum affinity for P1 peptide; format: binding, Pseudomonas aeruginosa; conditions: for cross-reactivity of the antiserum with P1: antiserum raised to the named peptide
[4] = system: KB7 wild-type; test: Active immunization with peptide, mice, KB7 wild-type challenge; format: in vivo, Pseudomonas aeruginosa; conditions: immunized animals (FIG. 6)
Experimental: (§1) A.BY/SnJ mice were actively immunized at week 0 with 40-50 μg of peptide-tetanus toxoid conjugate mixed with 100 μg of Adjuvax as adjuvant in 50 μl of 10 mM PBS at pH 7.2. Control mice were given 50 μ of 10 mM PBS at pH 7.2 containing 100 μg of Adjuvax. […] Each test group and the control group consisted of ten animals. The effectiveness of the vaccine was determined by the survival rate of the test animals up to 48 hours.

[5] = system: Pseudomonas aeruginosa agarose beads; test: Active intratracheal model, CF mice; format: in vivo; conditions: 10 days post i.t. challenge
[6] = system: P1 wild-type; test: Active immunization with peptide, mice, P1 wild-type challenge; format: in vivo, Pseudomonas aeruginosa; conditions: immunized animals (FIGS. 4, 5)
Experimental: as §1

[7] = system: AcKB7(128-144)OH; test: Competition ELISA, antiserum affinity for KB7 peptide; format: binding, Pseudomonas aeruginosa; conditions: for cross-reactivity of the antiserum with KB7: antiserum raised to the named peptide
[8] = system: Pseudomonas aeruginosa strain PAO; conditions: in vivo
[9] = system: AcPAO(128-144)OH; format: binding, Pseudomonas aeruginosa; conditions: cross-reactivity of an antiserum: affinity for native PAK over native PAO peptide, 1 = same affinity
[10] = system: peptide antigen used to raise the antiserum; test: Competition ELISA, antiserum affinity for its own peptide antigen; set-up: species or system Pseudomonas aeruginosa; conditions: peptide giving 50% inhibition of antibody binding to PAK pilin; read-out: Antigen I50
[11] = system: PAK wild-type; test: Active immunization with peptide, mice, PAK wild-type challenge; format: in vivo, Pseudomonas aeruginosa; conditions: immunized animals (FIG. 7)
Experimental: as §1

[12] = fold increase (+) or decrease (−) in affinity compared to antiserum 17-01

KCKSDQDPQFIPKGCSK [CS1]
cross-reactivity of the antiserum with PAK ([1]; antiserum raised to the named peptide): very high cross-reactivities | cross-reactivity of the antiserum with PAO [2]: very high cross-reactivities | cross-reactivity of the antiserum with P1 [3]: moderate cross-reactivities | protection after KB7 wild-type challenge [4]: effective in protecting; also recorded: good protection | Colony Forming Units in BAL Fluid ([5]; immunized i.n. & i.p.): 47 CFU (× 10^3)/mL | White Blood Cell Counts in BAL Fluid, Total Cells ([5]; immunized i.n. & i.p.): 4 (× 10^4)/mL | Colony Forming Units in BAL Fluid ([5]; immunized i.n.): 0 CFU (× 10^3)/mL | White Blood Cell Counts in BAL Fluid, Total Cells ([5]; immunized i.n.): 1 (× 10^4)/mL | Colony Forming Units in BAL Fluid ([5]; immunized i.p.): 5 CFU (× 10^3)/mL | White Blood Cell Counts in BAL Fluid, Total Cells ([5]; immunized i.p.): 28 (× 10^4)/mL | protection after P1 wild-type challenge [6]: effective in protecting; also recorded: high level of protection | cross-reactivity of the antiserum with KB7 [7]: moderate cross-reactivities

KCKSTQDEMFTPKGCSK [CS4]
protection after P1 wild-type challenge [6]: good protection

KCTSDQDEQFIPKGCSK [PAK, reference compound]
protection / survival time after PAO wild-type challenge [8]: does not provide protection against PAO challenge | cross-reactivity of the antiserum with PAO [2]: cross-reactive with the native PAO sequence

KCTSDQDPQFIPKGCSK [E135P]
IC50 ([1]; competition ELISA on PAK pili, read-out: I50 for PAK): 0.41 µM | PAK A [1, 12]: −2.2 | KPAK/KPAO [9]: 11,600 | cross-reactivity of the antiserum with PAO [2]: not able to effectively bind; also recorded: less cross-reactive than native PAK antiserum; also recorded: less cross-reactive to PAO than PAK peptide | IC50 ([2]; competition ELISA on PAK pili, read-out: I50 for PAO): 4750 µM | PAO A [2, 12]: −19.7 | cross-reactivity of the antiserum with P1 [3]: not cross-reactive | IC50 ([3]; competition ELISA on PAK pili, read-out: I50 for P1): 176 µM | PI A [3, 12]: +6.9 | cross-reactivity of the antiserum with KB7 [7]: not able to effectively bind; also recorded: not cross-reactive | KB7 A [7, 12]: −1.2 | IC50 ([7]; peptide giving 50% inhibition of antibody binding to PAK pilin, read-out: KB7 I50): 835 µM | IC50 [10]: 0.7 µM

KCTSTQDPQFIPKGCSK [CS2]
protection / survival time after PAO wild-type challenge [8]: complete protection | cross-reactivity of the antiserum with PAO [2]: enhanced cross-reactivity to PAO | protection after PAK wild-type challenge [11]: very high level of protection | protection after P1 wild-type challenge [6]: high level of protection

KCTSTQDPQFTPKGCSK [CS3]
protection after P1 wild-type challenge [6]: high level of protection
